Measurements reported in ChEMBL document CHEMBL1138575, “Synthesis of alpha-amyrin derivatives and their in vivo antihyperglycemic activity” (2009).

How the values were obtained:
Type in all cases: functional
Set-up in all cases: scale not given: the % may be the effect or the level left
[1] = test system: Rattus norvegicus; test: Antihyperglycemic activity against sucrose-challenged streptozotocin-induced fasted albino Sprague-Dawley rat assessed as reduction in blood glucose at 100 mg/kg, po administered 30 mins before sucrose challenge measured after 5 hrs post sucrose dose
[2] = test system: Rattus norvegicus; test: Antihyperglycemic activity against sucrose-challenged streptozotocin-induced fasted albino Sprague-Dawley rat assessed as reduction in blood glucose at 100 mg/kg, po administered 30 mins before sucrose challenge measured after 24 hrs post sucrose dose
[3] = test system: Rattus norvegicus; test: Antihyperglycemic activity against fasted sucrose-loaded albino rat model assessed as reduction in blood glucose at 100 mg/kg, po administered 30 mins before sucrose challenge measured after 5 hrs post sucrose dose
[4] = test system: Rattus norvegicus; test: Antihyperglycemic activity against fasted sucrose-loaded albino rat model assessed as reduction in blood glucose at 100 mg/kg, po administered 30 mins before sucrose challenge measured after 24 hrs post sucrose dose

SMILES	Activity [1]	Activity [2]	Activity [3]	Activity [4]
C/C=C(\C)C(=O)O[C@H]1CC[C@]2(C)[C@H]3CC=C4[C@@H]5[C@@H](C)[C@H](C)CC[C@]5(C)CC[C@@]4(C)[C@]3(C)CC[C@H]2C1(C)C	12.7%	22.6%		
C[C@H]1[C@H](C)CC[C@]2(C)CC[C@]3(C)C(=CC[C@@H]4[C@@]5(C)CC[C@H](OC(=O)c6ccc([N+](=O)[O-])cc6)C(C)(C)[C@@H]5CC[C@]43C)[C@H]12	13.8%	27.6%		
C[C@H]1[C@H](C)CC[C@]2(C)CC[C@]3(C)C(=CC[C@@H]4[C@@]5(C)CC[C@H](OC(=O)CCCC(=O)c6ccccc6)C(C)(C)[C@@H]5CC[C@]43C)[C@H]12	24%	23.5%		
C[C@H]1[C@H](C)CC[C@]2(C)CC[C@]3(C)C(=CC[C@@H]4[C@@]5(C)CC[C@H](OC(=O)c6ccc7ccccc7n6)C(C)(C)[C@@H]5CC[C@]43C)[C@H]12	19.6%	17.8%		
C[C@H]1[C@H](C)CC[C@]2(C)CC[C@]3(C)C(=CC[C@@H]4[C@@]5(C)CC[C@H](OC(=O)CNC(=O)c6ccccc6)C(C)(C)[C@@H]5CC[C@]43C)[C@H]12	3.15%	12.1%		
C[C@H]1[C@H](C)CC[C@]2(C)CC[C@]3(C)C(=CC[C@@H]4[C@@]5(C)CC/C(=N\N(C(=S)Nc6ccccc6)c6ccc([N+](=O)[O-])cc6[N+](=O)[O-])C(C)(C)[C@@H]5CC[C@]43C)[C@H]12			1.2%	7.35%
C[C@H]1[C@H](C)CC[C@]2(C)CC[C@]3(C)C(=CC[C@@H]4[C@@]5(C)CC[C@H](OC(=O)c6ccc(Cl)cc6)C(C)(C)[C@@H]5CC[C@]43C)[C@H]12	22.1%	25.6%		
C[C@H]1[C@H](C)CC[C@]2(C)CC[C@]3(C)C(=CC[C@@H]4[C@@]5(C)CC[C@H](O)C(C)(C)[C@@H]5CC[C@]43C)[C@H]12	13.9%	8.12%		
CC(=O)O[C@H]1CC[C@]2(C)[C@H]3CC=C4[C@@H]5[C@@H](C)[C@H](C)CC[C@]5(C)CC[C@@]4(C)[C@]3(C)CC[C@H]2C1(C)C	18.4%	17%		
Cc1ccc(C)c(C(=O)O[C@H]2CC[C@]3(C)[C@H]4CC=C5[C@@H]6[C@@H](C)[C@H](C)CC[C@]6(C)CC[C@@]5(C)[C@]4(C)CC[C@H]3C2(C)C)c1	24.9%	20.2%		
C[C@H]1[C@H](C)CC[C@]2(C)CC[C@]3(C)C(=CC[C@@H]4[C@@]5(C)CC[C@H](OC(=O)c6ccccc6C(=O)O)C(C)(C)[C@@H]5CC[C@]43C)[C@H]12	11%	16.5%		
C[C@H]1[C@H](C)CC[C@]2(C)CC[C@]3(C)C(=CC[C@@H]4[C@@]5(C)CC[C@H](OC(=O)CCC(=O)O[C@H]6CC[C@]7(C)[C@H]8CC=C9[C@@H]%10[C@@H](C)[C@H](C)CC[C@]%10(C)CC[C@@]9(C)[C@]8(C)CC[C@H]7C6(C)C)C(C)(C)[C@@H]5CC[C@]43C)[C@H]12	24.3%	15.6%		
COc1ccc(CC(=O)O[C@H]2CC[C@]3(C)[C@H]4CC=C5[C@@H]6[C@@H](C)[C@H](C)CC[C@]6(C)CC[C@@]5(C)[C@]4(C)CC[C@H]3C2(C)C)cc1	17.5%	15.6%		
C[C@H]1[C@H](C)CC[C@]2(C)CC[C@]3(C)C(=CC[C@@H]4[C@@]5(C)CC[C@H](OC(=O)c6cccnc6)C(C)(C)[C@@H]5CC[C@]43C)[C@H]12	18.2%	27.6%		
CN(C)C(=N)NC(=N)N [METFORMIN]	23.5%	26.5%		
